Source: patent publication EP3811940B1, “SUBSTITUTED 4,5'-BITHIAZOLES AS INHIBITORS OF THE HUMAN DNA TOPOISOMERASE II” (Kemijski Institut, priority 2019, dated 2021)
pIC50: −log10 of the molar value. Read-outs that look alike come from different tables or passages of the source. Each block holds one compound with its values, some of them ahead of it.

Assays:
[1] = biological target: T1, human topo IIα (Homo sapiens, UniProt P11388); assay: HTS relaxation assay of human topo IIα; type: biochemical; details: screening at 7.8, 31.5, 125 and 500 µM
T1 construct: purchased Inspiralis (Norwich, UK)
T1 sequence (P11388 whole entry): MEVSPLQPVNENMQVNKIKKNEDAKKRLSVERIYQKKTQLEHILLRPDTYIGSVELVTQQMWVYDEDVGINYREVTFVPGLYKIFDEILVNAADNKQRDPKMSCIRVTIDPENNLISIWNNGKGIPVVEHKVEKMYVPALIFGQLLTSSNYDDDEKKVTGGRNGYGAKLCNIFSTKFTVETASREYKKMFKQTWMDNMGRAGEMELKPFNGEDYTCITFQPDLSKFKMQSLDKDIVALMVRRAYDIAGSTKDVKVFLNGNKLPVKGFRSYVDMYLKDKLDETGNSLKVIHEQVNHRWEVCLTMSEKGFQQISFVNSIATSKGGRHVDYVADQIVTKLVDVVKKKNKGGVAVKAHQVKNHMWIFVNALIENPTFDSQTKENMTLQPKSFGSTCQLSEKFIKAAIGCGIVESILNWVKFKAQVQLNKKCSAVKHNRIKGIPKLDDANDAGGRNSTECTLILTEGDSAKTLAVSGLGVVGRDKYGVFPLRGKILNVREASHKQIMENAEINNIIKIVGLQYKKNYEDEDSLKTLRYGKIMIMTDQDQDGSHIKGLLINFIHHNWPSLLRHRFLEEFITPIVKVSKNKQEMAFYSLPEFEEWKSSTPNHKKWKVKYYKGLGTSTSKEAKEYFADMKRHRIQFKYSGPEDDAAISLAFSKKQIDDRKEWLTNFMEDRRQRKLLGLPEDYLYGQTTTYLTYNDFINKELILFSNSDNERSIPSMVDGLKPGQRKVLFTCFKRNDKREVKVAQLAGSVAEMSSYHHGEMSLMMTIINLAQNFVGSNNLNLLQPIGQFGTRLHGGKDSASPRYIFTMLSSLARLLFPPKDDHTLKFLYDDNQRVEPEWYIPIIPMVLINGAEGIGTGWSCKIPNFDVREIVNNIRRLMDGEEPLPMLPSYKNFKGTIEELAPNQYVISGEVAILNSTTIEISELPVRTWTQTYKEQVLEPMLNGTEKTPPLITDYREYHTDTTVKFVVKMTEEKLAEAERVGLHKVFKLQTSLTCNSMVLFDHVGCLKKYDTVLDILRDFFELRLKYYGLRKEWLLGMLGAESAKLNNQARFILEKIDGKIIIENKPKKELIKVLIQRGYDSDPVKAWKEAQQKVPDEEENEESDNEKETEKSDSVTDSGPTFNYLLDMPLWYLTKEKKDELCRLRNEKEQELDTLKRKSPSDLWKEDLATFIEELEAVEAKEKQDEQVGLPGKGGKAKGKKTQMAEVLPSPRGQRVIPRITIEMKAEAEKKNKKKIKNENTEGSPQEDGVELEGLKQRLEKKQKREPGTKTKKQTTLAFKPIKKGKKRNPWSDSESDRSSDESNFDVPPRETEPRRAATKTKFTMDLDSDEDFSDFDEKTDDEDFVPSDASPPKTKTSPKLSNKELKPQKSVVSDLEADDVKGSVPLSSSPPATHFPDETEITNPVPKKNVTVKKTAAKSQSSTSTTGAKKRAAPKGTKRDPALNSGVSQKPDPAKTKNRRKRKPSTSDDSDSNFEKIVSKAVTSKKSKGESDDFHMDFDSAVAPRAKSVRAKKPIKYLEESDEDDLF
Protocol: The 14 selected compounds from the class of substituted 4,5'-bithiazoles were experimentally assayed if they inhibit catalytic activity of human topo IIα using an established high-throughput screening (HTS) relaxation assay for human topo IIα [24].
The HTS assays primarily served to select compounds for further evaluation.
Plate was rehydrated using wash buffer (20 mM Tris-HCl (pH = 7.6), 137 mM NaCl, 0.005 % (w/v) BSA, 0.05 % (v/v) TWEEN-20®) and biotinylated oligonucleotide was immobilized onto the wells. Next, the excess oligonucleotide was washed off with wash buffer. Enzyme assay was carried out in reaction volume of 30 µL using 0.75 µg supercoiled plasmid pNO1 as a substrate and human topo IIα. Enzyme was diluted to the appropriate concentration with dilution buffer comprised of 50 mM Tris-Hcl (pH = 7.5), 100 mM NaCl, 1 mM DTT, 0.5 mM EDTA, 50 % (v/v) glycerol and 50 µg/mL albumin. Tested compounds (0.3 µL) were added as a stock solution in DMSO and final concentration of DMSO was 1 %, respectively. Reactions were incubated at 37 °C for 30 min, and TF buffer (50 mM NaOAc (pH = 5.0), 50 mM NaCl, 50 mM MgCl2) was added to the wells and incubated at room temperature for additional 30 min to allow the triplex biotin-oligonucleotid-plasmid formation. To eliminate the aggregation and non-specific inhibition a surfactant (TWEEN-20®) was added to the reaction mixture. Unbound plasmid was washed off with TF buffer and stained with the DNA-detection Dye in the T10 buffer (10 mM Tris-HCl (pH = 8) and 1 mM EDTA) was added. After mixing, fluorescence was read using Tecan fluorimeter (Excitation: 485 nm and Emission: 535 nm). Screening was performed at the inhibitor concentrations of 7.8, 31.5, 125 and 500 µM. IC50 values were calculated using GraphPad Prism 6.0 software and represent the concentrations of inhibitors where residual activity of the enzyme was 50 % [24].

[2] = solubility in the cell growth media; type: physicochemical; details: result in words
[3] = system: HepG2 cells; assay: MTS cytotoxicity assay, HepG2; type: cell-based, human; details: for effect on the tested cell lines: initial screening, 24 h, 100 µM for compound 6, 200 µM for 8 and 11, result in words; for EC50: Homo sapiens, interval in brackets
From the text: (§1) We determined the cytotoxicity of the tested compounds on human breast cancer MCF-7 and human hepatocellular carcinoma HepG2 cancer cell lines using MTS assay. Both selected human cancer cell lines are representative and well-established systems for cell-based evaluation of potential anticancer compounds. Etoposide was again used as a positive control (PC).
(§2) In the first step we performed the initial screening of compounds 1-14 at one concentration. […] Exponentially growing cells were exposed to all compounds for 24 h and the results are represented in Figure 3A.
(§3) In vitro cytotoxicity of investigated compounds was evaluated in two human cancer cell lines: the […] cell lines. The HepG2 cells (ATCC) were cultivated at 37 °C and 5 % CO2 in MEME medium (M2414, Sigma) supplemented with 10 % FBS, 2 mM L-Glutamine, 1 % NEAA, 2.2 g/L NaHCO3, 1 mM sodium pyruvate and 100 IU/mL penicillin/ streptomycin and MCF-7 (ATCC) were cultivated in Eagle's MEM medium (M5650, Sigma), supplemented with 10 % fetal bovine serum, 2 mM glutamine, and 100 IU/mL penicillin/streptomycin. After the exposure to the tested compounds the viability of HepG2 and MCF-7 cells was determined by MTS tetrazolium reduction assay. The cells were seeded onto 96-well microplates (Nunc, TermoFisher Scientific, Waltham, MA, USA) at densities of 8000 cells per well (HepG2) and 7000 cells per well (MCF-7) in […] growth medium and incubated overnight to attach. The next day, the growth medium was replaced by the fresh complete growth medium containing appropriate concentrations of the compounds. […] Finally, the absorbance was measured at wavelength of 490 nm using a Microplate Reader (Synergy MX, BioTek, Winooski, VT, USA). […] Assay was performed at 5 concentrations of each compound; 2, 25, 50, 100 and 200 µM for compounds 1, 7 and 14 and 1, 12.5, 25, 50, 100 µM for compounds 9 and 10. […] Cell viability was determined by comparing the OD (optical density) of the wells containing the cells treated with investigated compounds with those of solvent control cells and presented as % of cell viability ± SD. Experiments were performed three times independently each time in at least three replicates. EC50 values were calculated by non-linear regression analysis using GraphPad Prism 7.0 Software. Statistical significance between treated groups and the control was determined by One-way analysis of variance and Dunnett's Multiple Comparison Test.

[4] = system: MCF-7 cells; assay: MTS cytotoxicity assay, MCF-7; type: cell-based, human; details: for effect on the tested cell lines: initial screening, 24 h, 100 µM for compound 6, 200 µM for 8 and 11, result in words; for EC50: Homo sapiens, interval in brackets
From the text: as §1, §2, §3

[5] = HepG2, read-out: EC50 [µM] HepG2 (24h), 24h exposure
[6] = HepG2, 72h exposure, read-out: EC50 [µM] HepG2 (72h)
[7] = MCF7, read-out: EC50 [µM] MCF-7 (24h), 24h exposure
[8] = MCF7, 72h exposure, read-out: EC50 [µM] MCF-7 (72h)

Structure (SMILES): Cc1cc(O)ccc1Nc1nc(-c2sc(N)nc2C)cs1 [Compound 2, 4-((2'-amino-4'-methyl-[4,5'-bithiazol]-2-yl)amino)-3-methylphenol]
pIC50 [1]: 4.45

Structure (SMILES): CC(=O)c1ccc(Nc2nc(-c3sc(N)nc3C)cs2)cc1 [Compound 3, 1-(4-((2'-amino-4'-methyl-[4,5'-bithiazol]-2-yl)amino)phenyl)ethan-1-one]
pIC50 [1]: 3.65 | solubility in the cell growth media [2]: low solubility

Structure (SMILES): Cc1cc(NS(=O)(=O)c2ccc(Nc3nc(-c4sc(N)nc4C)cs3)cc2)no1 [Compound 4, 4-((2'-amino-4'-methyl-[4,5'-bithiazol]-2-yl)amino)-N-(5-methylisoxazol-3-yl)benzenesulfonamide]
pIC50 [1]: 4.52

Structure (SMILES): Cc1nc(N)sc1-c1csc(Nc2ccc(S(N)(=O)=O)cc2)n1 [Compound 5, 4-((2'-amino-4'-methyl-[4,5'-bithiazol]-2-yl)amino)benzenesulfonamide]
pIC50 [1]: 4.15

Structure (SMILES): Cc1nc(N)sc1-c1csc(Nc2ccc(C(=O)O)c(O)c2)n1 [Compound 6, 4-((2'-amino-4'-methyl-[4,5'-bithiazol]-2-yl)amino)-2-hydroxybenzoic acid]
effect on the tested cell lines [3]: little or no effect | pIC50 [1]: 4.42 | effect on the tested cell lines [4]: little or no effect

Structure (SMILES): CC(=O)Nc1nc(C)c(-c2csc(Nc3cccc(O)c3)n2)s1 [Compound 7, N-(2-((3-hydroxyphenyl)amino)-4'-methyl-[4,5'-bithiazol]-2'-yl)acetamide]
EC50 [3, 5]: 45.6 µM | EC50 [3, 6]: 32.3 µM | pIC50 [1]: 4.47 | EC50 [4, 7]: 12.3 µM | EC50 [4, 8]: 6.6 µM

Structure (SMILES): CC(=O)Nc1nc(C)c(-c2csc(Nc3ccc(C(=O)O)cc3)n2)s1 [Compound 8, 4-((2'-acetamido-4'-methyl-[4,5'-bithiazol]-2-yl)amino)benzoic acid]
effect on the tested cell lines [3]: little or no effect | pIC50 [1]: 3.92 | effect on the tested cell lines [4]: little or no effect

Further lines, with some results ahead:

pIC50 [1]: 4.64
Structure (SMILES): COc1ccc(Nc2nc(-c3sc(NC(C)=O)nc3C)cs2)cc1 [Compound 10, N-(2-((4-methoxyphenyl)amino)-4'-methyl-[4,5'-bithiazol]-2'-yl)acetamide]
EC50 [3, 5]: 34.7 µM | EC50 [3, 6]: 14.6 µM | EC50 [4, 7]: 16.4 µM | EC50 [4, 8]: 4.5 µM

pIC50 [1]: 3.87
Structure (SMILES): CC(=O)Nc1nc(C)c(-c2csc(Nc3cccc(C(=O)O)c3)n2)s1 [Compound 11, 3-((2'-acetamido-4'-methyl-[4,5'-bithiazol]-2-yl)amino)benzoic acid]
effect on the tested cell lines [3]: little or no effect | effect on the tested cell lines [4]: little or no effect

pIC50 [1]: 3.71
Structure (SMILES): CC(=O)Nc1nc(C)c(-c2csc(Nc3ccc(O)cc3)n2)s1 [Compound 12, N-(2-((4-hydroxyphenyl)amino)-4'-methyl-[4,5'-bithiazol]-2'-yl)acetamide]

pIC50 [1]: 3.91
Structure (SMILES): CCC(=O)Nc1nc(C)c(-c2csc(Nc3ccc(C(=O)O)cc3)n2)s1 [Compound 13, 4-((4'-methyl-2'-propionamido-[4,5'-bithiazol]-2-yl)amino)benzoic acid]

pIC50 [1]: 3.45
Structure (SMILES): CC(=O)Nc1nc(C)c(-c2csc(Nc3ccccc3)n2)s1 [Compound 14, N-(4'-methyl-2-(phenylamino)-[4,5'-bithiazol]-2'-yl)acetamide]
EC50 [3, 5]: 47.7 µM | EC50 [3, 6]: 28.2 µM | EC50 [4, 7]: 32.3 µM | EC50 [4, 8]: 7.5 µM

pIC50 [1]: 4.90
Structure (SMILES): Cc1nc(NC(=O)c2ccccc2)sc1-c1csc(Nc2ccc(C(=O)O)cc2)n1 [Compound 15, 4-((2'-benzamido-4'-methyl-[4,5'-bithiazol]-2-yl)amino)benzoic acid]
